Data from article doi:10.64898/2025.12.08.692997v2 (biorxiv, 2025).
Structures can show the parent of a compound that is named as a salt. Where two headings read alike, the source gives them in different places.

Experiments:
Test in all cases: biochemical
[1] = target: T1, human EphB2-His ectodomain - human EphrinB2-Fc ectodomain (EphB2-EphrinB2 tetramer) (Homo sapiens, UniProt P29323+P52799); conditions: EphrinB2-EphB2 IC50 (Absolute, µM)
[2] = target: T1, human EphB2-His ectodomain - human EphrinB2-Fc ectodomain (EphB2-EphrinB2 tetramer); conditions: EphrinB2-EphB2 IC50 (Relative, µM)
[3] = target: T1, human EphB2-His ectodomain - human EphrinB2-Fc ectodomain (EphB2-EphrinB2 tetramer)
[4] = target: T1, human EphB2-His ectodomain - human EphrinB2-Fc ectodomain (EphB2-EphrinB2 tetramer); remark: listed apart in the source

T1 sequence (P52799 28-229): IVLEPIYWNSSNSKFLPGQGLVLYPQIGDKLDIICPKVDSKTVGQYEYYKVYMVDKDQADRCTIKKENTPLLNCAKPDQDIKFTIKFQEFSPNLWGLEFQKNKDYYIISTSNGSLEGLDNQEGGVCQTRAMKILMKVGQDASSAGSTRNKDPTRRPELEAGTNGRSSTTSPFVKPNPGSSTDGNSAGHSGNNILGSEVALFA
T1 sequence (P29323 19-543): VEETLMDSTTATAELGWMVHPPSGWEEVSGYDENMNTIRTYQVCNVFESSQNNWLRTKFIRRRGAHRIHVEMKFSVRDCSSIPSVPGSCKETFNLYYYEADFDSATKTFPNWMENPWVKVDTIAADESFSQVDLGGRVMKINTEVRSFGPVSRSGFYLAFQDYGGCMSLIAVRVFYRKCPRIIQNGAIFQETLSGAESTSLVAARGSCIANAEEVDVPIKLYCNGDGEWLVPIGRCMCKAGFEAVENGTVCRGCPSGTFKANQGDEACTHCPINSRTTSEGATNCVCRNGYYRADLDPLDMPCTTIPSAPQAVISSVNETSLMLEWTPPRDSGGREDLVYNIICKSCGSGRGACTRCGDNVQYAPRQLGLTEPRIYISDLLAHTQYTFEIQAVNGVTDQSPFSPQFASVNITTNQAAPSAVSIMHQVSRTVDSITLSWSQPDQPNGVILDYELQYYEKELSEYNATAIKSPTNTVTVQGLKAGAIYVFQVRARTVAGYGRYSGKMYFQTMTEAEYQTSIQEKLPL

## Cc1ccc2c(CN3CCOCC3)cc(Br)c(O)c2n1 [2-MeA20, 7-bromo-2-methyl-5-(morpholinomethyl)quinolin-8-ol]
[1]
  IC50: > 3.2 µM

## Cc1ccc2c(CN3CCN(c4ccc(Br)cc4)CC3)ccc(O)c2n1 [2-MeQPB4 . 2 HCl, 5-((4-(4-bromophenyl)piperazin-1-ium-1-yl)methyl)-8-hydroxy-2-methylquinolin-1-ium chloride]
[2]
  IC50: > 1.6 µM
[1]
  IC50: > 1.6 µM

## Cc1ccc2c(CN3CCN(c4ccc(Br)cc4)CC3)ccc(O)c2n1 [2-MeQPB4, 5-((4-(4-bromophenyl)piperazin-1-yl)methyl)-2-methylquinolin-8-ol]
[2]
  IC50: > 3.2 µM
[1]
  IC50: > 3.2 µM

## OCc1ccc2c(CN3CCOCC3)ccc(O)c2n1 [2OH-A19, 2-(hydroxymethyl)-5-(morpholinomethyl)quinolin-8-ol]
[2]
  IC50: > 3.2 µM
[1]
  IC50: > 3.2 µM

## OCc1ccc2c(CN3CCOCC3)cc(Br)c(O)c2n1 [2OH-A20, 7-bromo-2-(hydroxymethyl)-5-(morpholinomethyl)quinolin-8-ol]
[1]
  IC50: > 3.2 µM

## COc1ccccc1N1CCN(Cc2cc(Br)c(O)c3ncccc23)CC1 [3511-0013, 7-bromo-5-((4-(2-methoxyphenyl)piperazin-1-yl)methyl)quinolin-8-ol]
[1]
  IC50: > 1.6 µM

## COc1ccccc1N1CCN(Cc2ccc(O)c3ncccc23)CC1 [3511-0013-BF, 5-((4-(2-methoxyphenyl)piperazin-1-yl)methyl)quinolin-8-ol]
[1]
  IC50: > 3.2 µM

## Oc1ccc(CN2CCOCC2)c2cccnc12 [A19 . 2 HCl, 4-((8-hydroxyquinolin-1-ium-5-yl)methyl)morpholin-4-ium chloride]
[1]
  IC50: > 6.4 µM

## O=[N+]([O-])c1cc(CN2CCOCC2)c2cccnc2c1O [A19-NO2 . 2 HCl, 4-((8-hydroxy-7-nitroquinolin-1-ium-5-yl)methyl)morpholin-4-ium chloride]
[2]
  IC50: > 1.6 µM
[1]
  IC50: > 1.6 µM

## O=[N+]([O-])c1cc(CN2CCOCC2)c2cccnc2c1O [A19-NO2, 5-(morpholinomethyl)-7-nitroquinolin-8-ol]
[2]
  IC50: > 3.2 µM
[1]
  IC50: > 3.2 µM

## Oc1c(Br)cc(CN2CCOCC2)c2cccnc12 [A20 . 2 HCl, 4-((7-bromo-8-hydroxyquinolin-1-ium-5-yl)methyl)morpholin-4-ium chloride]
[1]
  IC50: 0.78 µM

## O=C(Cc1ccccc1)Nc1ccc(N2CCN(Cc3cc(Br)c(O)c4ncccc34)CC2)cc1 [BQPA-PAc, N-(4-(4-((7-bromo-8-hydroxyquinolin-5-yl)methyl)piperazin-1-yl)phenyl)-2-phenylacetamide]
[2]
  IC50: > 3.2 µM
[1]
  IC50: > 3.2 µM

## Oc1c(Br)cc(CN2CCN(Cc3ccc(Br)cc3)CC2)c2cccnc12 [BQPB4-Bn, 7-bromo-5-((4-(4-bromobenzyl)piperazin-1-yl)methyl)quinolin-8-ol]
[1]
  IC50: > 3.2 µM

## COc1ccc2[nH]cc(C(=O)N3CCOCC3)c2c1 [IM, (5-methoxy-1H-indol-3-yl)(morpholino)methanone]
[2]
  IC50: > 3.2 µM
[1]
  IC50: > 3.2 µM

## COc1ccc2[nH]cc(C(=O)N3CCN(c4ccccc4OC)CC3)c2c1 [IMP2, (5-methoxy-1H-indol-3-yl)(4-(2-methoxyphenyl)piperazin-1-yl)methanone]
[2]
  IC50: > 1.6 µM
[1]
  IC50: > 1.6 µM

## COc1ccc2[nH]cc(C(=O)N3CCN(c4ccc(Br)cc4)CC3)c2c1 [IPB4, (4-(4-bromophenyl)piperazin-1-yl)(5-methoxy-1H-indol-3-yl)methanone]
[2]
  IC50: > 1.6 µM
[1]
  IC50: > 1.6 µM

## CC(=O)Nc1ccc(N2CCN(Cc3ccc(O)c4ncccc34)CC2)cc1 [QPA-Ac, N-(4-(4-((8-hydroxyquinolin-5-yl)methyl)piperazin-1-yl)phenyl)acetamide]
[1]
  IC50: > 3.2 µM

## Oc1ccc(CN2CCN(c3ccc(Br)cc3)CC2)c2cccnc12 [QPB4 . 2 HCl, 5-((4-(4-bromophenyl)piperazin-1-ium-1-yl)methyl)-8-hydroxyquinolin-1-ium chloride]
[1]
  IC50: > 1.6 µM

## Oc1ccc(CN2CCN(Cc3ccc(C(F)(F)F)cc3)CC2)c2cccnc12 [QPCF34-Bn, 5-((4-(4-(trifluoromethyl)benzyl)piperazin-1-yl)methyl)quinolin-8-ol]
[2]
  IC50: > 1.6 µM
[1]
  IC50: > 1.6 µM

## Oc1ccc(CN2CCN(c3ccc(F)cc3F)CC2)c2cccnc12 [QPDF, 5-((4-(2,4-difluorophenyl)piperazin-1-yl)methyl)quinolin-8-ol]
[2]
  IC50: > 1.6 µM
[1]
  IC50: > 1.6 µM

## Oc1ccc(CN2CCN(c3ccc(I)cc3)CC2)c2cccnc12 [QPI4 . 2HCl, 8-hydroxy-5-((4-(4-iodophenyl)piperazin-1-ium-1-yl)methyl)quinolin-1-ium chloride]
[1]
  IC50: > 1.6 µM

## Oc1ccc(CN2CCN(c3ccc(Br)cn3)CC2)c2cccnc12 [QPP. 2 HCl, 5-((4-(5-bromopyridin-2-yl)piperazin-1-ium-1-yl)methyl)-8-hydroxyquinolin-1-ium chloride]
[1]
  IC50: > 3.2 µM

## Oc1ccc(CN2CCN(c3ccccc3)CC2)c2cccnc12 [QPPh . 2HCl, 8-hydroxy-5-((4-phenylpiperazin-1-ium-1-yl)methyl)quinolin-1-ium chloride]
[2]
  IC50: > 1.6 µM
[1]
  IC50: > 1.6 µM

## Oc1ccc(CN2CCN(c3ccccc3)CC2)c2cccnc12 [QPPh, 5-((4-phenylpiperazin-1-yl)methyl)quinolin-8-ol]
[1]
  IC50: > 3.2 µM

## O=S1(=O)CCN(Cc2cc(Br)c(O)c3ncccc23)CC1 [QTM-Br . 2 HCl, 4-((7-bromo-8-hydroxyquinolin-1-ium-5-yl)methyl)thiomorpholin-4-ium 1,1-dioxide chloride]
[2]
  IC50: 0.62 µM

## O=S1(=O)CCN(Cc2cc(I)c(O)c3ncccc23)CC1 [QTM-I . 2 HCl, 4-((8-hydroxy-7-iodoquinolin-1-ium-5-yl)methyl)thiomorpholin-4-ium 1,1-dioxide chloride]
[1]
  IC50: > 1.6 µM

## O=[N+]([O-])c1cc(CN2CCS(=O)(=O)CC2)c2cccnc2c1O [QTM-NO2, 4-((8-hydroxy-7-nitroquinolin-5-yl)methyl)thiomorpholine 1,1-dioxide]
[1]
  IC50: > 3.2 µM

## O=C(Oc1cccc2cccnc12)c1ccc(Br)cc1 [compound 1, 8-quinolinyl 4-bromobenzoate]
[3]
  IC50: > 100 µM

## CN(C(=O)Oc1cccc2cccnc12)c1ccccc1 [compound 2, 8-quinolinyl methyl(phenyl)carbamate]
[4]
  IC50: > 100 µM

## CN(C(=O)Oc1c(Cl)cc(Cl)c2cccnc12)c1ccccc1 [compound 3, 5,7-dichloro-8-quinolinyl methyl(phenyl)carbamate]
[4]
  IC50: > 100 µM

## CCN(CC)C(=O)Oc1c(Cl)cc(Cl)c2cccnc12 [compound 6, 5,7-dichloro-8-quinolinyl diethylcarbamate]
[4]
  IC50: > 100 µM

## O=C(Oc1ccc(Cl)c2cccnc12)c1cccc(Br)c1 [compound 7, 5-chloro-8-quinolinyl 3-bromobenzoate]
[3]
  IC50: > 100 µM

## CCN(CC)C(=O)Oc1c(Br)cc(Cl)c2cccnc12 [compound 7, 7-bromo-5-chloro-8-quinolinyl diethylcarbamate]
[4]
  IC50: > 100 µM

## O=C(Oc1ccc(Cl)c2cccnc12)c1cccc(Cl)c1 [compound 8, 5-chloro-8-quinolinyl 3-chlorobenzoate]
[3]
  IC50: > 100 µM

## CN(C)C(=O)Oc1c(Br)cc(Cl)c2cccnc12 [compound 8, 7-bromo-5-chloro-8-quinolinyl dimethylcarbamate]
[4]
  IC50: > 100 µM

## O=C(Oc1c(I)cc(Cl)c2cccnc12)N1CCCCC1 [compound 9, 5-chloro-7-iodo-8-quinolinyl 1-piperidinecarboxylate]
[4]
  IC50: > 100 µM

## CCN(CC)C(=O)Oc1c(I)cc(Cl)c2cccnc12 [compound 10, 5-chloro-7-iodo-8-quinolinyl diethylcarbamate]
[4]
  IC50: > 100 µM

## O=C(Oc1ccc(Cl)c2cccnc12)c1ccc(Cl)c(Cl)c1 [compound 10, 5-chloro-8-quinolinyl 3,4-dichlorobenzoate]
[3]
  IC50: > 100 µM

## CN(C)C(=O)Oc1c(I)cc(Cl)c2cccnc12 [compound 11, 5-chloro-7-iodo-8-quinolinyl dimethylcarbamate]
[4]
  IC50: > 100 µM

## Cc1ccc(N(C)C(=O)Oc2c(Br)cc(Br)c3ccc(C)nc23)cc1 [compound 13, 5,7-dibromo-2-methylquinolin-8-yl methyl(4-methylphenyl)carbamate]
[4]
  IC50: > 100 µM

## COc1ccc(C(=O)Oc2cccc3cccnc23)cc1Cl [compound 13, 8-quinolinyl 3-chloro-4-methoxybenzoate]
[3]
  IC50: > 100 µM

## O=C(Oc1c(Cl)cc(Cl)c2cccnc12)N1CCOCC1 [compound 14, 5,7-dichloro-8-quinolinyl 4-morpholinecarboxylate]
[4]
  IC50: > 100 µM

## COc1cc(C(=O)Oc2ccc(Cl)c3cccnc23)cc(OC)c1OC [compound 14, 5-chloro-8-quinolinyl 3,4,5-trimethoxybenzoate]
[3]
  IC50: > 100 µM

## COc1cc(OC)cc(C(=O)Oc2ccc(Cl)c3cccnc23)c1 [compound 15, 5-chloro-8-quinolinyl 3,5-dimethoxybenzoate]
[3]
  IC50: > 100 µM

## O=C(Oc1c(Br)cc(Cl)c2cccnc12)N1CCOCC1 [compound 15, 7-bromo-5-chloro-8-quinolinyl 4-morpholinecarboxylate]
[4]
  IC50: > 100 µM

## COc1ccc(C(=O)Oc2ccc(Cl)c3cccnc23)cc1 [compound 16, 5-chloro-8-quinolinyl 4-methoxybenzoate]
[3]
  IC50: > 100 µM

## Cc1ccc(C(=O)Oc2c(Cl)cc(Cl)c3cccnc23)cc1C [compound 17, 5,7-dichloro-8-quinolinyl 3,4-dimethylbenzoate]
[3]
  IC50: > 100 µM

## Cc1cccc(C(=O)Oc2ccc(Cl)c3cccnc23)c1 [compound 18, 5-chloro-8-quinolinyl 3-methylbenzoate]
[3]
  IC50: > 100 µM
